Data taken from the NIST ThermoML archive (doi:10.1021/je050092d).
Numbers after ± are expanded uncertainties.

Tests used:
[1] = for molar entropy: 101.33 kPa, Vacuum adiabatic calorimetry
[2] = Molar enthalpy of transition or fusion; conditions: Adiabatic calorimetry

## CCCCCCCCCCCCCCCCCC(=O)OCC(COC(=O)CCCCCCCCCCCCCCCCC)OC(=O)CCCCCCCCCCCCCCCCC [glycerol trioctadecanoate]
[1]; 10 K, Crystal
  molar entropy: 5.349 ± 0.89 J/K/mol
[1]; 20 K, Crystal
  molar entropy: 32.09 ± 0.89 J/K/mol
[1]; 30 K, Crystal
  molar entropy: 74.88 ± 0.89 J/K/mol
[1]; 40 K, Crystal
  molar entropy: 130.16 ± 1.8 J/K/mol
[1]; 50 K, Crystal
  molar entropy: 188.99 ± 2.7 J/K/mol
[1]; 60 K, Crystal
  molar entropy: 251.4 ± 3.6 J/K/mol
[1]; 70 K, Crystal
  molar entropy: 315.58 ± 4.5 J/K/mol
[1]; 80 K, Crystal
  molar entropy: 380.66 ± 6.2 J/K/mol
[1]; 90 K, Crystal
  molar entropy: 443.96 ± 7.1 J/K/mol
[1]; 100 K, Crystal
  molar entropy: 504.58 ± 8 J/K/mol
[1]; 110 K, Crystal
  molar entropy: 562.52 ± 8.9 J/K/mol
[1]; 120 K, Crystal
  molar entropy: 618.69 ± 8.9 J/K/mol
[1]; 130 K, Crystal
  molar entropy: 673.07 ± 9.8 J/K/mol
[1]; 140 K, Crystal
  molar entropy: 726.56 ± 11 J/K/mol
[1]; 150 K, Crystal
  molar entropy: 778.26 ± 12 J/K/mol
[1]; 160 K, Crystal
  molar entropy: 829.97 ± 12 J/K/mol
[1]; 170 K, Crystal
  molar entropy: 879.89 ± 13 J/K/mol
[1]; 180 K, Crystal
  molar entropy: 929.81 ± 14 J/K/mol
[1]; 190 K, Crystal
  molar entropy: 978.84 ± 15 J/K/mol
[1]; 200 K, Crystal
  molar entropy: 1028.8 ± 15 J/K/mol
[1]; 210 K, Crystal
  molar entropy: 1077.8 ± 16 J/K/mol
[1]; 220 K, Crystal
  molar entropy: 1125.9 ± 17 J/K/mol
[1]; 230 K, Crystal
  molar entropy: 1173.2 ± 18 J/K/mol
[1]; 240 K, Crystal
  molar entropy: 1219.5 ± 19 J/K/mol
[1]; 250 K, Crystal
  molar entropy: 1266.8 ± 19 J/K/mol
[1]; 260 K, Crystal
  molar entropy: 1314 ± 20 J/K/mol
[1]; 270 K, Crystal
  molar entropy: 1361.3 ± 21 J/K/mol
[1]; 280 K, Crystal
  molar entropy: 1408.5 ± 18 J/K/mol
[1]; 290 K, Crystal
  molar entropy: 1456.7 ± 22 J/K/mol
[1]; 298.15 K, Crystal
  molar entropy: 1495.9 ± 22 J/K/mol
[1]; 300 K, Crystal
  molar entropy: 1504.8 ± 22 J/K/mol
[1]; 310 K, Crystal
  molar entropy: 1553.8 ± 23 J/K/mol
[1]; 320 K, Crystal
  molar entropy: 1603.8 ± 24 J/K/mol
[1]; 330 K, Crystal
  molar entropy: 1655.5 ± 25 J/K/mol
[1]; Crystal, Adiabatic calorimetry
  Triple point temperature: 345.94 ± 0.04 K
[1]; Metastable crystal, Adiabatic calorimetry
  Normal melting temperature: 54.2 ± 0.1 °C
[2]; Crystal
  Molar enthalpy of transition or fusion: 47.22 ± 0.43 kcal/mol
[2]; Metastable crystal
  Molar enthalpy of transition or fusion: 30.9 ± 0.43 kcal/mol
